{"source": "patent US20150025139A1", "about": "“INGENOL MEBUTATE IN COMBINATION WITH CRYOTHERAPY FOR THE TREATMENT OF ACTINIC KERATOSIS” (LEO Laboratories Limited, priority 2012, published 2015)", "key": {"[1]": {"tested_on": "actinic keratosis (AK) lesions on the face or scalp", "format": "in vivo, human", "method": "In the context of the present invention partial clearance of AKs are defined as 75% or greater reduction in the number of clinically visible AKs in the selected treatment area from baseline.\nA Phase 3, multi-centre, randomised, two-arm, parallel group, double-blinded, vehicle-controlled, 12-month study is conducted (See FIG. 1). Eligible subjects with 4 to 8 clinically typical, visible and discrete AKs within a contiguous 25 cm^2 treatment area on the face and scalp will be randomised to one of two arms. Treatment Arm A will receive cryotherapy to all visible AKs (4-8 lesions, “baseline lesions”) in the selected treatment area then, after 2-4 weeks healing time, field treatment with ingenol mebutate (PEP005 Gel) 0.015% once daily for 3 consecutive days. Treatment Arm B will receive cryotherapy to all visible AKs (4-8 lesions, “baseline lesions”) in the selected treatment area then, after 3 weeks healing time, field treatment with vehicle gel once daily for 3 consecutive days.\nEligible subjects include male or female, at least 18 years of age, with 4 to 8 clinically typical, visible, and discrete AK lesions within a 25 cm^2 contiguous treatment area on the face or scalp. Exclusion criteria stipulate restrictions for prohibited treatments and procedures prior to study entry. This sample is representative of the population which will be treated for AK.\nA Phase 3, multi-centre, randomised, two-arm, parallel group, double-blinded, vehicle-controlled, 12-month study is being conducted (See FIG. 1). Eligible subjects with 4 to 8 clinically typical, visible and discrete AKs within a contiguous 25 cm^2 treatment area on the face and scalp were randomised to one of two arms. Treatment Arm A received cryotherapy to all visible AKs (4-8 lesions, “baseline lesions”) in the selected treatment area then, after 2-4 weeks healing time, they received field treatment with ingenol mebutate (PEP005 Gel) 0.015% once daily for 3 consecutive days. […]"}, "[2]": {"assay": "Phase 3 study: adverse events related to trial medication", "format": "in vivo, human", "settings": "face or scalp, week 11 data", "method": "(§1) For safety, AEs and LSRs will be recorded. Local skin responses will be graded using a scale that was developed by the sponsor and used in the previous clinical studies. This is a defined grading scale to ensure that a clear and systematic assessment of LSRs is performed. The LSR Grading Scale employs a 0 to 4 scoring system for each category to be assessed with photographs and definitions of each grade. The LSR Grading Scale has been published previously.\nLocal skin responses will be converted into MedDRA preferred terms applying the following conversions seen below. These adverse events will be reported separately from adverse events recorded on the adverse event form in the CRF.\n(§2) For safety, AEs and LSRs were recorded. Local skin responses were graded using a scale that was developed by the sponsor and used in the previous clinical studies. This was a defined grading scale to ensure that a clear and systematic assessment of LSRs is performed. The LSR Grading Scale employs a 0 to 4 scoring system for each category to be assessed with photographs and definitions of each grade.\nThe most common adverse effect is application site pain. None of the severe adverse events were related to trial medication. All adverse effects related to trial medication were resolved at week 11."}, "[3]": {"assay": "Phase 3 study: local skin responses (composite LSR score)", "format": "in vivo, human", "method": "as §1\nThe incidence and grade of LSRs in the LSR safety set will be summarized by treatment arm overall and at each visit by anatomical location. Local skin response grades will be summarized by frequency counts and descriptive statistics by treatment arm and visit for each of the six individual LSRs: erythema, flaking/scaling, crusting, swelling, vesiculation/pustulation, and erosion/ulceration.\nA composite (sum) score will be obtained by summing the six individual LSR scores at each visit. The composite score and change from baseline will be summarized by treatment arm at each visit using descriptive statistics. The first visit at which the highest sum score is attained will be summarized by treatment arm. For those subjects whose LSR sum score increased in intensity from baseline, the first visit at which the LSR returned to the baseline intensity will be presented by treatment arm.\nas §2"}, "[4]": {"tested_on": "actinic keratosis, face and scalp", "settings": "earlier Phase 3 studies, cited from earlier work"}}, "data": [{"smiles": "C/C=C(/C)C(=O)O[C@H]1C(C)=C[C@]23C(=O)[C@@H](C=C(CO)[C@@H](O)[C@]12O)[C@H]1[C@@H](C[C@H]3C)C1(C)C", "note": "[ingenol mebutate]", "values": [{"measurement": "percentage of patients with complete clearance (no clinically visible AKs)", "setting": "[1]; 72 h", "value": 60.5, "unit": "%"}, {"measurement": "percentage of patients with partial clearance (75% or greater reduction in AKs)", "setting": "[1]; 72 h", "value": 77.8, "unit": "%"}, {"measurement": "Median percent reduction from baseline in AK lesion count", "setting": "[1]; week 11", "value": 100.0, "unit": "%"}, {"measurement": "tolerability of treatment after cryosurgery", "setting": "[2]", "value": "well tolerated"}, {"measurement": "composite LSR score at baseline", "setting": "[3]; baseline, before cryosurgery and topical treatment", "value": 2.2}, {"measurement": "mean (SD) composite LSR score at peak", "setting": "[3]; peak at visit 3", "value": "8.5 (4.7)"}, {"measurement": "mean composite LSR score, course after topical treatment", "setting": "[3]; week 5, 2 weeks after topical treatment", "value": "return to a score similar to that of earlier visits"}, {"measurement": "sustained clearance", "setting": "[4]; 12 month following treatment", "value": "around 50%"}, {"measurement": "complete field clearance", "setting": "[4]; face and scalp", "value": "37-47%"}]}]}
